Assay results reported in publication PMC9894841, “Characterisation of a cyclic peptide that binds to the RAS binding domain of phosphoinositide 3-kinase p110α” (Scientific Reports, 2023).
Values joined by “and” are separate entries in the source; they are usually repeats but may differ in a detail not shown here. Equal entries are not always repeated. “Also recorded” adds a separate entry of the source. Residues, ends and D or L forms follow the SMILES beside them.

How the values were obtained:
p110α (p110α/p85α) = p110α (p110α/p85α) (Homo sapiens, UniProt P42336); experiment: Microscale thermophoresis (MST) binding to labelled p110α/p85α; details: for Kd: labelled protein 100 nM, 25 °C; for increase in affinity for p110α over cyclo-CRVLAA: MST
GST-RBDα/KRAS = target: T1, GST-RBDα/KRAS (Homo sapiens, UniProt P42336); experiment: GST-RBDα/KRAS reverse two-hybrid system (RTHS), SICLOPPS screen; type: cell-based, E. coli; details: arabinose induced expression of the cyclic peptide
T1 construct: we created a fusion of the RBD (amino acids 133 – 314) with GST; expressed in transfected cells; host or cells: E. coli strain SNS126 (cassette integrated via pAH68)
From the text: The SICLOPPS technique as previously published is based on two steps: first, building a reverse two-hybrid system (RTHS) that expresses the target protein complex in bacteria as a screening platform and second, the production of a genetically encoded cyclic peptide library[25]–[29]. […] Also, the expression of the full length p110α needs to be in association with the regulatory subunit p85α in order to achieve a stable protein dimer, which makes it a large and complex protein to express in bacteria. In a successful RTHS system, the engineered bacterial cell line should show a reduction of growth on selective media upon induction of expression of the target protein complex with increasing isopropyl β-d-1-thiogalactopyranoside (IPTG)[27]–[29]. […] We hypothesised that this could be due to a lack of solubility of RBDα, a previously described feature of the RBDs of p110 proteins. Therefore, we designed another RTHS carrying a GST fusion tag at the N-terminus of the RBDα (GST-RBDα/KRAS RTHS).
We used the GST-RBDα/KRAS RTHS to screen a CXXXXX (where X is any of the 20 canonical amino acids) SICLOPPS plasmid library of 3.2 million genetically encoded cyclic hexapeptides. The cyclic peptides contain an invariant cysteine and five other amino acids that are each equally distributed between the twenty possibilities. Thus, each SICLOPPS plasmid contains a different sequence representing a unique peptide.
Due to the lack of solubility of the p110α-RBD we created a fusion of the RBD (amino acids 133 – 314) with GST (Glutathione S-transferase) by PCR amplification, to produce a recombinant protein of GST-RBD (hereafter RBD). Both KRAS (amino acids 1–168—lacking the Hyper Variable Region) and the RBD were cloned into the pTHCP14 vector that contains two bacteriophage repressors P22 and 434, producing a cassette that consists of two fusion proteins—KRAS with 434 and RBD with P22. This cassette was then sub-cloned into the CRIM integration plasmid pAH68—for integration into E. coli strain SNS126 that contains the chimeric P22 and 434 operators. When expressed, the interaction of KRAS with the RBD brings together the P22 and the 434 repressors to form a dimer that will interact with the chimeric P22 and 434 operators—resulting in no growth on selective media.
The SICLOPPS library was generated by PCR amplification using degenerate primers encoding cyclo-CXXXXX hexapeptides (where X is any amino acid), producing around 3.2 million compounds. The SICLOPPS RTHS formation, cyclic peptide production and library screening were followed as described[24],[25],[46].

[1] = Solubility of the peptides (in words); type: physicochemical
H1792 cells = experiment: Western blot of phospho-AKT / phospho-ERK in H1792 cells; type: cell-based, human; details: RPMI 1640 10% FCS, 2, 10 and 50 µM (also 4, 20 and 100 µM), 4 h
Procedure: We treated the human lung cancer cell line H1792, growing at steady-state in Roswell Park Memorial Institute (RPMI) 1640 media with 10% Foetal Calf Serum (FCS), with the seven cyclic peptides at three different concentrations (2, 10 and 50 µM) for 4 h. After treatment we measured the effect of the peptides on the phosphorylation levels of AKT (pAKT-Ser473), a key downstream effector of p110α activity. […] In contrast, the phosphorylation levels of ERK (p-ERK), which is a downstream effector of the RAS/RAF/MEK/ERK pathway and is independent of p110α activity, were not affected.
The next day, 1 ml of medium was removed and the cells were treated with different peptide concentrations for 4 h. All peptides were dissolved in 25 mM Tris pH8, 100 mM NaCl and 1 mM TCEP. Cells were then harvested and lysed for SDS-PAGE and western blot analysis. Anti-calnexin antibody was obtained from Abcam. Antibodies directed against phospho-T202/Y204-ERK, ERK, phospho-S473-AKT and AKT were obtained from Cell Signaling. After western blotting, calnexin, AKT and phospho-AKT signals were quantified using ImageJ and statistical tests were done using Prism software.

CRAF-RBD = CRAF-RBD (Homo sapiens, UniProt P04049); experiment: MST binding to CRAF-RBD
CRAF-RBD, sequence (P04049 56-131 limits assumed): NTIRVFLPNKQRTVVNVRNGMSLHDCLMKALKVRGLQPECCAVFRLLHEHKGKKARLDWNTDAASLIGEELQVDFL
Procedure: Measurements were performed using a NanoTemper Monolith™ NT.115 instrument (NanoTemper Technologies GmbH, München, Germany). […] Labelling levels (generally in the range 0.3–0.4 dye molecules per protein molecule) were determined using calculated extinction coefficients for the protein and ε647 = 250,000 M^−1 cm^−1 (or ε495 = 70,000 M^−1 cm^−1) for the dye concentration. In a typical experiment 20 ml aliquots of a 100 nM stock solution of labelled protein were mixed with 20 ml aliquots of a serial dilution of binding partner. These solutions were then loaded into standard treated capillaries and MST measurements were performed at 25 °C using 20–40% LED power and 40–60% IR-Laser power. The laser Laser-On time was 30 s and Laser-Off time 5 s. All measurements were performed at least five times.

T1 sequence (P42336 133-314): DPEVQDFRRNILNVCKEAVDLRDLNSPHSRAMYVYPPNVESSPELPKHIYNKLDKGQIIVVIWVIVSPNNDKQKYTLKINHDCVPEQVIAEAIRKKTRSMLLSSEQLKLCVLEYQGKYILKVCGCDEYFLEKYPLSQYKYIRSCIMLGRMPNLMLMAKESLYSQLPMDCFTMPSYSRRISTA
p110α (p110α/p85α), sequence (P42336 whole entry, species assumed): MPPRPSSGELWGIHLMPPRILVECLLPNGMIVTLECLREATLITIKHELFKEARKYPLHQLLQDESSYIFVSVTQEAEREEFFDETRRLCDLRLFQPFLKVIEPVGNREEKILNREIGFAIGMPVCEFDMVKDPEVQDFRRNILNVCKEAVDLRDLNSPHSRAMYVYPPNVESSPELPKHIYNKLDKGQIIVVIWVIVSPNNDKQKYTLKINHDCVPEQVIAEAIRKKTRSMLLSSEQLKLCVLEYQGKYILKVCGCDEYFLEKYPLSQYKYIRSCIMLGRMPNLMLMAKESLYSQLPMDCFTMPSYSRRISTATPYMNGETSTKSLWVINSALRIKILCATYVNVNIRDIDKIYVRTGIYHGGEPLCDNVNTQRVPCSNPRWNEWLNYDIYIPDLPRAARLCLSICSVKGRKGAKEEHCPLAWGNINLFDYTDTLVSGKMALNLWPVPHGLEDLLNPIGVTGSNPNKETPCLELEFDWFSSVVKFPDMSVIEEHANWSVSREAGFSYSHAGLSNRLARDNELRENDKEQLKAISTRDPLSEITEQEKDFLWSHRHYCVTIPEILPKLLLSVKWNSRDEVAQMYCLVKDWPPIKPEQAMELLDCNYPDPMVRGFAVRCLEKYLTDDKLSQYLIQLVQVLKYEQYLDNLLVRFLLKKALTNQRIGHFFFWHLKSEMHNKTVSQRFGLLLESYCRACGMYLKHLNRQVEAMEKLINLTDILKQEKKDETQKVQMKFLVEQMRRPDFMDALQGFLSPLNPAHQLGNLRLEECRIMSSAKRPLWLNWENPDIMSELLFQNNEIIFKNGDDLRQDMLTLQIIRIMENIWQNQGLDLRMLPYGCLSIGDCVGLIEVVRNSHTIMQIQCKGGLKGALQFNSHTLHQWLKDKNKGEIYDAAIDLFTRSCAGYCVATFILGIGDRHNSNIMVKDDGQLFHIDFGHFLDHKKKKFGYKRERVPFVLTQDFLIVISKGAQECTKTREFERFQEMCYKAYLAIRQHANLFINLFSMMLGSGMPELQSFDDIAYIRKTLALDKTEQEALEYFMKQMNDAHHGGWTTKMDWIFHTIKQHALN
p110α (p110α/p85α), sequence (P27986 whole entry partner, species assumed): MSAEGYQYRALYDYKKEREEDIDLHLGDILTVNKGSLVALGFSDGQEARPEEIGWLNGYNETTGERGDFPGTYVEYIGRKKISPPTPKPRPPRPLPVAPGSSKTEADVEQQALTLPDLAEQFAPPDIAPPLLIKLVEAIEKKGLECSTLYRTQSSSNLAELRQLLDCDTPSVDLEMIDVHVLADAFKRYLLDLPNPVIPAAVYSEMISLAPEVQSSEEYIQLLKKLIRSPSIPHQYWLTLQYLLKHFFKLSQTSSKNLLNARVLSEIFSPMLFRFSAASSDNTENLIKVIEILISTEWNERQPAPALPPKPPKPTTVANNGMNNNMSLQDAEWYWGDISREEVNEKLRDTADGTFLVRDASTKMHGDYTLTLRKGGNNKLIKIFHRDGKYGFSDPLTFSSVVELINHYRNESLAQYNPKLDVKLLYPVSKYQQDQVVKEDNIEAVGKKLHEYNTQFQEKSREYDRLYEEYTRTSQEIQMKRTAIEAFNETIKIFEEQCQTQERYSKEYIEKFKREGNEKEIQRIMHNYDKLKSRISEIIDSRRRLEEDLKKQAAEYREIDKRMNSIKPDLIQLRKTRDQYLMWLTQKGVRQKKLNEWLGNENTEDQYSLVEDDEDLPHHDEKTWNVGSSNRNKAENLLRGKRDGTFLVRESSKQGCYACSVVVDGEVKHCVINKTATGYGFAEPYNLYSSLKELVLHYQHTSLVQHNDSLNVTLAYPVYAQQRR

In the case of CC(C)C[C@@H]1NC(=O)[C@H](C(C)C)NC(=O)[C@H](CCCNC(=N)N)NC(=O)[C@H](CS)NC(=O)[C@H](C)NC(=O)[C@H](CCC(=O)O)NC1=O [CRVLEA, Cyclo-CRVLEA] (cyclo(CRVLEA)), the Kd (p110α (p110α/p85α)) is reported as at least 1210 µM.

In the case of CC(C)C[C@@H]1NC(=O)[C@H](CS)NC(=O)[C@H](Cc2c[nH]c3ccccc23)NC(=O)[C@H](Cc2c[nH]c3ccccc23)NC(=O)[C@H](Cc2ccc(O)cc2)NC(=O)[C@H](Cc2c[nH]c3ccccc23)NC1=O [cyclo-CLWYWW, Cyclo-CLWYWW] (cyclo(CLWYWW)), the “regrowth of the GST-RBDα/KRAS RTHS on selective media with IPTG” value (shortened to “regrowth … on selective media with IPTG”) (GST-RBDα/KRAS) is reported as “regrowth”.

With Cyclo-CAWCGR the “regrowth … on selective media with IPTG” value (GST-RBDα/KRAS) was “regrowth”.

CC(C)C[C@@H]1NC(=O)[C@H](C(C)C)NC(=O)[C@H](CCCNC(=N)N)NC(=O)[C@H](CS)NC(=O)[C@H](C)NC(=O)[C@H](CC(=O)O)NC1=O [CRVLDA, Cyclo-CRVLDA] (cyclo(CRVLDA)) gave a Kd (p110α (p110α/p85α)) of at least 476 µM.

With CSCC[C@@H]1NC(=O)[C@H](CS)NC(=O)[C@H](CCCNC(=N)N)NC(=O)CNC(=O)CNC(=O)[C@H](CO)NC1=O [cyclo-CMSGGR, Cyclo-CMSGGR] (cyclo(CMSGGR)) the “regrowth … on selective media with IPTG” value (GST-RBDα/KRAS) was “regrowth”.

With CC(C)C[C@@H]1NC(=O)[C@H](Cc2ccc(O)cc2)NC(=O)[C@H](CC(C)C)NC(=O)[C@H](CC(C)C)NC(=O)[C@H](Cc2c[nH]c3ccccc23)NC(=O)[C@H](CS)NC1=O [cyclo-CWLLYL, Cyclo-CWLLYL] (cyclo(CWLLYL)) the “regrowth … on selective media with IPTG” value (GST-RBDα/KRAS) was “regrowth”.

With CC(C)C[C@@H]1NC(=O)[C@H](CCCCN)NC(=O)[C@H](CS)NC(=O)[C@H](CC(C)C)NC(=O)[C@H](C(C)C)NC(=O)[C@H](C(C)C)NC1=O [cyclo-CKLVVL, Cyclo-CKLVVL] (cyclo(CKLVVL)) the “regrowth … on selective media with IPTG” value (GST-RBDα/KRAS) was “regrowth”.

In the case of CC(C)C[C@@H]1NC(=O)[C@H](C(C)C)NC(=O)[C@H](CCCNC(=N)N)NC(=O)[C@H](CS)NC(=O)[C@H](CCCNC(=N)N)NC(=O)[C@H](C)NC1=O [cyclo-CRVLAR, Cyclo-CRVLAR] (cyclo(ARCRVL)), the “increase in affinity for p110α over cyclo-CRVLAA” value (p110α (p110α/p85α)) is reported as “tenfold”.

In the case of CC(C)C[C@@H]1NC(=O)[C@H](C(C)C)NC(=O)[C@H](CCCNC(=N)N)NC(=O)[C@H](CS)NC(=O)[C@H](C)NC(=O)[C@H](C)NC1=O [cyclo-CRVLAA, Cyclo-CRVLAA], the “binding to p110α in words, MST” value (p110α (p110α/p85α)) is reported as “weak binding; also recorded: interacted weakly”, the Kd (p110α (p110α/p85α)) is reported as ≥ 360 µM and ~360 µM and the solubility in words [1] is reported as “most soluble of these”.

CC(C)C[C@@H]1NC(=O)[C@H](C(C)C)NC(=O)[C@H](CCCNC(=N)N)NC(=O)[C@H](CS)NC(=O)[C@H](CCC(=O)O)NC(=O)[C@H](C)NC1=O [CRVLAE, Cyclo-CRVLAE] (cyclo(CRVLAE)) showed a Kd (p110α (p110α/p85α)) of at least 817 µM.

With CC(C)C[C@@H]1NC(=O)[C@H](CS)NC(=O)[C@H](Cc2ccc(O)cc2)NC(=O)[C@H](Cc2c[nH]c3ccccc23)NC(=O)[C@H](Cc2c[nH]c3ccccc23)NC(=O)[C@H](C(C)C)NC1=O [cyclo-CLVWWY, Cyclo-CLVWWY] (cyclo(CLVWWY)) the “regrowth … on selective media with IPTG” value (GST-RBDα/KRAS) was “regrowth”.

With CC[C@H](C)[C@@H]1NC(=O)[C@H](C(C)C)NC(=O)[C@H](CS)NC(=O)[C@H](C(C)C)NC(=O)[C@H](C(C)C)NC(=O)[C@H](CC(C)C)NC1=O [cyclo-CVILVV, Cyclo--CVILVV] (cyclo(CVILVV)) the “regrowth … on selective media with IPTG” value (GST-RBDα/KRAS) was “regrowth”.

For CC(C)C[C@@H]1NC(=O)[C@H](C(C)C)NC(=O)[C@H](CCCNC(=N)N)NC(=O)[C@H](CS)NC(=O)[C@H](CCCNC(=N)N)NC(=O)[C@H]([C@@H](C)O)NC1=O [cyclo-CRVLTR, Cyclo-CRVLTR] (cyclo(CRVLTR)), the “effect on phospho-AKT (pAKT-Ser473) levels” value (H1792 cells) was “mild effect”.

For CC(C)C[C@@H]1NC(=O)[C@H](C(C)C)NC(=O)[C@H](CCCNC(=N)N)NC(=O)[C@H](CS)NC(=O)[C@H](C)NC(=O)[C@H](CCCNC(=N)N)NC1=O [CRVLRA, Cyclo-CRVLRA] (cyclo(CRVLRA)), the Kd (p110α (p110α/p85α)) was at least 140 µM.

For CC(C)C[C@@H]1NC(=O)[C@H](C(C)C)NC(=O)[C@H](CCCNC(=N)N)NC(=O)[C@H](CS)NC(=O)[C@H](CC(=O)O)NC(=O)[C@H](C)NC1=O [cyclo-CRVLAD, Cyclo-CRVLAD], the “increase in affinity for p110α over cyclo-CRVLAA” value (p110α (p110α/p85α)) was 30 fold, the Kd (p110α (p110α/p85α)) was 11.8 ± 1.75 µM and the “binding to CRAF-RBD in words, MST” value (CRAF-RBD) was “does not interact; also recorded: did not produce a positive signal of interaction”.

In the case of CC[C@H](C)[C@@H]1NC(=O)[C@H](CCCNC(=N)N)NC(=O)[C@H](CS)NC(=O)[C@H]([C@@H](C)CC)NC(=O)[C@H](C(C)C)NC(=O)[C@H](C(C)C)NC1=O [cyclo-CRIVVI, Cyclo-CRIVVI] (cyclo(CRIVVI)), the “regrowth … on selective media with IPTG” value (GST-RBDα/KRAS) is reported as “regrowth”.
